Experimental data from the NIST ThermoML archive (doi:10.1016/j.fluid.2017.01.019).

Test: xn = mol fraction of the nth substance listed
Details: 100 kPa, Liquid; for viscosity: Falling or rolling sphere viscometry; for speed of sound: Frequency=3 MHz, Sing-around technique in a fixed-path interferometer; for mass density: Vibrating tube method

CCCCO [butan-1-ol] + CO
Details | mass density, 313.15 K [kg/m3] | mass density, 318.15 K [kg/m3] | mass density, 323.15 K [kg/m3] | speed of sound, 313.15 K [m/s] | speed of sound, 318.15 K [m/s] | speed of sound, 323.15 K [m/s] | viscosity, 313.15 K [mPa·s] | viscosity, 318.15 K [mPa·s] | viscosity, 323.15 K [mPa·s]
x1 = 0.0997 | 777.683 | 773.076 | 768.447 | 1081.8 | 1065.7 | 1049.7 | 0.56 | 0.53 | 0.51
x1 = 0.1994 | 781.397 | 776.932 | 772.448 | 1101 | 1084.9 | 1068.9 | 0.66 | 0.61 | 0.58
x1 = 0.3068 | 784.606 | 780.263 | 775.921 | 1119.8 | 1103.6 | 1087.5 | 0.77 | 0.71 | 0.66
x1 = 0.3991 | 786.863 | 782.592 | 778.306 | 1134.2 | 1118 | 1101.8 | 0.88 | 0.81 | 0.75
x1 = 0.5082 | 789.167 | 784.996 | 780.936 | 1147.5 | 1131.2 | 1115 | 1.02 | 0.93 | 0.86
x1 = 0.604 | 790.889 | 786.847 | 782.762 | 1160.7 | 1144.4 | 1128 | 1.18 | 1.05 | 0.96
x1 = 0.6992 | 792.224 | 788.248 | 784.201 | 1168.3 | 1151.8 | 1135.4 | 1.29 | 1.17 | 1.06
x1 = 0.7994 | 793.273 | 789.325 | 785.373 | 1178.9 | 1162.4 | 1145.9 | 1.47 | 1.33 | 1.2
x1 = 0.9038 | 793.979 | 789.993 | 785.98 | 1185.7 | 1169.2 | 1152.6 | 1.66 | 1.49 | 1.35
x1 = 1 | 794.617 | 790.655 | 786.645 | 1190.9 | 1174.2 | 1157.6 | 1.85 | 1.66 | 1.5
